Laboratory results as given in patent US12600732B2, “Bifunctional compounds for degrading BTK via ubiquitin proteosome pathway” (NURIX THERAPEUTICS, INC., priority 2019, dated 2026).

Key:
[1] = tested on: TMD8 C481S cells; experiment: Cell viability assay (CellTiter-Glo), TMD8 C481S cells; settings: for EC50: Homo sapiens, TMD8, 72 h; for EMAX (% viable cells): TMD8 C481S cells, treatment time 72 h
[2] = tested on: TMD8 cells; experiment: Cell viability assay (CellTiter-Glo), TMD8 cells; settings: for EC50: Homo sapiens, TMD8, 72 h; for EMAX (% viable cells): TMD8 cells, treatment time 72 h
[3] = biological target: T1, BTK (Mus musculus, UniProt P35991); experiment: In vivo degradation of BTK in mouse PD experiments with oral dosing
T1 construct: from tissue; host or cells: mouse blood B cells / splenocytes (CD-1 or BALB/c)
Protocol: A method of determining the pharmacodynamic profile of BTK degraders was performed by dosing either CD-1 or BALB/c mice with CTM. The CTM was prepared in a suitable formulation and was administered via oral gavage (PO) at a suitable dose level and frequency as informed by prior pharmacokinetic and tolerability studies. Following administration of CTM, BTK levels in blood or splenocytes are measured using flow cytometry or HTRF. For assessment of BTK levels via flow cytometry, either whole blood or splenocytes were first treated with ACK RBC lysis buffer to facilitate lysing of red blood cells. Remaining cells were then stained with fluorophore-conjugated antibodies against CD45, TCR beta and CD45R (B220). Cell pellets were washed with 1×PBS, fixed, and permeabilized for twenty-four hours with Foxp3/Transcription Factor Fixation/Permeabilization Kit. Cells were then stained intracellularly with unconjugated BTK antibody and detected with a fluorophore-conjugated secondary antibody. Stained cells were run on an Attune N×T Acoustic Focusing Flow Cytometer (Thermo-Fisher A29004), and data was analyzed using FlowJo (v10.5.3) and GraphPad Prism (v7.00) software. Lymphocytes were gated for B cells defined as CD45+ TCR beta−B220+ and T cells as CD45+ TCR beta+B220−. The BTK geometric mean fluorescence intensity (MFI) was calculated for B and T cells. Percent BTK degradation for each compound-treated sample was calculated using the equation described below: % Degradation=100*(Treated sample B cell BTK MFI-treated sample T cell BTK MFI)/Vehicle B cell BTK MFI-Vehicle T cell BTK MFI)
This example evaluates in vivo activity of BTK CTMs via a direct mouse PD measurement following oral dosing
Screens were completed at 90 mg/kg for six hours, and then changed to lower doses/longer time points after seeing strong BTK degradation activity with an initial set of compounds. This assay was useful in selecting compounds for in vivo efficacy experiments.

[4] = PK data for BTK CTMs (in vivo plasma concentrations); settings: Mouse Balb/c
From the text: The present example evaluates in vivo plasma concentrations of BTK CTMs to develop PK-PD-efficacy relationship and predict human exposure.

[5] = oral dose 90 mg/kg, 6 h, splenocytes, HTRF
[6] = oral dose 3 mg/kg, 6 h, blood, flow cytometry
[7] = oral dose 30 mg/kg, 24 h, blood, flow cytometry
[8] = oral dose 3 mg/kg, 24 h, blood, flow cytometry
[9] = oral dose 30 mg/kg, 24 h, splenocytes, HTRF
[10] = oral dose 1 mg/kg, 6 h, splenocytes, HTRF

T1 sequence (P35991 whole entry): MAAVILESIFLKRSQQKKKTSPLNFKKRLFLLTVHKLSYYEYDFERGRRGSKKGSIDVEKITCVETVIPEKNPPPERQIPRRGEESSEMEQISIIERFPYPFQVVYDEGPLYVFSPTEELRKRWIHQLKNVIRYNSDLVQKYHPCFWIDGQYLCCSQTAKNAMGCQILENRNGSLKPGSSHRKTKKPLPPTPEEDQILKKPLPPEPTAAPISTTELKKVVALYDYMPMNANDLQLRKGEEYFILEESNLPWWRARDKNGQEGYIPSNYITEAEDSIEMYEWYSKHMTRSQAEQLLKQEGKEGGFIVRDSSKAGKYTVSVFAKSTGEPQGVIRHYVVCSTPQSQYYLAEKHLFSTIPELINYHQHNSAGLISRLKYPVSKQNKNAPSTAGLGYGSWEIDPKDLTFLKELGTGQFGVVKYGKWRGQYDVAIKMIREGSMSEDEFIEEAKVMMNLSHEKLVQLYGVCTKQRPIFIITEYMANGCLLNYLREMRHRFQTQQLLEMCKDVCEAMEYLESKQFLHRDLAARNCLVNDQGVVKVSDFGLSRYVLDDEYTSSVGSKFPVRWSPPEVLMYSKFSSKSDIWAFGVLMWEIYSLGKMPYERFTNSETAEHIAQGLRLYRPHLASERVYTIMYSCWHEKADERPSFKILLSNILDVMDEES

Row | % BTK Remaining [3, 5] | Structure (SMILES) | EC50 [1] | EMAX (% viable cells) [1] | EC50 [2] | EMAX (% viable cells) [2] | further results
1 | <1% | CN1CCN([C@@H]2CCCN(c3cnc(C(N)=O)c(Nc4ccc(N5CCN(CC6CCN(c7ccc8c(c7)C(=O)N(C7CCC(=O)NC7=O)C8=O)CC6)CC5)cc4)n3)C2)C1=O (stereo partly drawn) [Compound 49] | 3.86 nM | 23% | 0.61 nM | 28% | –
2 | 5% | CN1CCN([C@@H]2CCCN(c3cnc(C(N)=O)c(Nc4ccc(N5CCN(C[C@H]6CCN(c7ccc8c(c7)C(=O)N(C7CCC(=O)NC7=O)C8=O)C6)CC5)cc4)n3)C2)C1=O (stereo partly drawn) [Compound 42] | 1.96 nM | 57% | 0.217 nM | 40% | –
3 | 3% | CN1CCN([C@@H]2CCCN(c3cnc(C(N)=O)c(Nc4ccc(N5CCN(CC6CN(c7ccc8c(c7)C(=O)N(C7CCC(=O)NC7=O)C8=O)C6)CC5)cc4)n3)C2)C1=O (stereo partly drawn) [Compound 60] | 8.37 nM | 26% | 0.97 nM | 20% | –
4 | 7% | CN1CCN([C@@H]2CCCN(c3cnc(C(N)=O)c(Nc4ccc(N5CCN(C[C@@H]6CCN(c7ccc8c(c7)C(=O)N(C7CCC(=O)NC7=O)C8=O)C6)CC5)cc4)n3)C2)C1=O (stereo partly drawn) [Compound 59] | 2.03 nM | 52% | 0.15 nM | 31% | –
5 | 1% | CN1CCN([C@@H]2CCCN(c3cnc(C(N)=O)c(Nc4ccc(C5CCN(CC6CN(c7ccc8c(c7)C(=O)N(C7CCC(=O)NC7=O)C8=O)C6)CC5)cc4)n3)C2)C1=O (stereo partly drawn) [Compound 54] | 7.11 nM | 6% | 0.61 nM | 13% | –
6 | 80% | CN1CCN([C@@H]2CCCN(c3cnc(C(N)=O)c(Nc4ccc(C5CCN(c6ccc7c(c6)C(=O)N(C6CCC(=O)NC6=O)C7=O)CC5)cc4)n3)C2)C1=O (stereo partly drawn) [Compound 47] | 43.5 nM | 61% | 3.83 nM | 39% | –
7 | 2% | CN1CCN([C@@H]2CCCN(c3cnc(C(N)=O)c(Nc4ccc(C5CCN(C[C@@H]6CCN(c7ccc8c(c7)C(=O)N(C7CCC(=O)NC7=O)C8=O)C6)CC5)cc4)n3)C2)C1=O (stereo partly drawn) [Compound 52] | – | – | – | – | –
8 | 7% | CN1CCN([C@@H]2CCCN(c3cnc(C(N)=O)c(Nc4ccc(N5CCN(C[C@H]6CCCN(c7ccc8c(c7)C(=O)N(C7CCC(=O)NC7=O)C8=O)C6)CC5)cc4)n3)C2)C1=O (stereo partly drawn) [Compound 48] | – | – | – | – | –
9 | 8% | CN1CCN([C@@H]2CCCN(c3cnc(C(N)=O)c(Nc4ccc(C5CCN(CCC6CN(c7ccc8c(c7)C(=O)N(C7CCC(=O)NC7=O)C8=O)C6)CC5)cc4)n3)C2)C1=O (stereo partly drawn) [Compound 45] | – | – | – | – | –

Second part, the compound before the results:

Row | Structure (SMILES) | % BTK Remaining [3, 5] | EC50 [1] | EMAX (% viable cells) [1] | EC50 [2] | EMAX (% viable cells) [2] | further results
10 | CN1CCN([C@@H]2CCCN(c3cnc(C(N)=O)c(Nc4cnn(C5CN(CC6CCN(c7ccc8c(c7)C(=O)N([C@@H]7CCC(=O)NC7=O)C8=O)CC6)C5)c4)n3)C2)C1=O [Compound 209] | – | 55.2 nM | 44% | 7.41 nM | 49% | –
11 | Cn1cc(Nc2nc(N3CCC[C@@H](N4CC5(CN(C6CCN(c7ccc8c(c7)C(=O)N([C@H]7CCC(=O)NC7=O)C8=O)CC6)C5)OC4=O)C3)cnc2C(N)=O)cn1 [Compound 212] | – | 63 nM | 44% | 15.1 nM | 42% | % BTK Remaining [3, 6]: 78%
12 | CN1CCN([C@@H]2CCCN(c3cnc(C(N)=O)c(Nc4ccc(C5CCN(C[C@H]6CCN(c7ccc8c(=O)n(C9CCC(=O)NC9=O)ccc8c7)C6)CC5)cc4)n3)C2)C1=O (stereo partly drawn) [Compound 115] | – | 1.93 nM | 16% | 2.74 nM | 13% | % BTK Remaining [3, 7]: 30%
13 | CN1CCN([C@@H]2CCCN(c3cnc(C(N)=O)c(Nc4ccc(C5CCN(C6CN(Cc7ccc8c(c7)CN(C7CCC(=O)NC7=O)C8=O)C6)CC5)cc4)n3)C2)C1=O (stereo partly drawn) [Compound 86] | – | 4.78 nM | 30% | 0.67 nM | 27% | AUC ([4]; 1 mg/kg IV): 0.5 µM·h; clearance ([4]; 1 mg/kg IV): 35 mL/min/kg; Vd ([4]; 1 mg/kg IV, read-out: Volume of Distribution): 7.7 L/kg; AUC ([4]; 30 mg/kg PO): 0.34 µM·h; bioavailability ([4]; 30 mg/kg PO): 2%; % BTK Remaining [3, 6]: 56%; % BTK Remaining [3, 8]: 70%
14 | CN1CCN([C@@H]2CCCN(c3cnc(C(N)=O)c(Nc4ccc(C5CCN(C[C@H]6CCN(c7ccc8c(c7)C(=O)N([C@@H]7CCC(=O)NC7=O)C8=O)C6)CC5)nc4)n3)C2)C1=O [Compound 207] | – | 0.009 nM | 54% | – | – | % BTK Remaining [3, 9]: 46%
15 | CN1CCN([C@@H]2CCCN(c3cnc(C(N)=O)c(Nc4ccc(N5CCC6(CCN(Cc7ccc8c(c7)CN([C@@H]7CCC(=O)NC7=O)C8=O)CC6)CC5)cc4)n3)C2)C1=O [Compound 210] | – | 5.29 nM | 40% | 5.61 nM | 32% | –
16 | Cn1cc(Nc2nc(N3CCC[C@@H](N4CC5(CN(CC6CCN(c7ccc8c(c7)C(=O)N(C7CCC(=O)NC7=O)C8=O)CC6)C5)OC4=O)C3)cnc2C(N)=O)cn1 (stereo partly drawn) [compound 211, 5-[(3R)-3-[2-({1-[2-(2,6-dioxopiperidin-3-yl)-1,3-dioxoisoindol-5-yl]piperidin-4-yl}methyl)-6-oxo-5-oxa-2,7-diazaspiro[3.4]octan-7-yl]piperidin-1-yl]-3-[(1-methylpyrazol-4-yl)amino]pyrazine-2-carboxamide] | – | 113 nM | 28% | 11.7 nM | 30% | % BTK Remaining [3, 6]: 74%
17 | CN1CCN([C@H]2CCCN(c3cnc(C(N)=O)c(Nc4ccc(N5CCC6(CCN(c7ccc8c(c7)C(=O)N(C7CCC(=O)NC7=O)C8=O)CC6)CC5)nc4)n3)C2)C1=O (stereo partly drawn) [Compound 80] | – | 125 nM | 78% | 45.2 nM | 45% | % BTK Remaining ([3]; oral dose 0.3 mg/kg, 24 h, blood, flow cytometry): 88%; % BTK Remaining ([3]; oral dose 0.3 mg/kg, 24 h, splenocytes, flow cytometry): 115%; % BTK Remaining [3, 6]: 96%; % BTK Remaining [3, 8]: 77%; % BTK Remaining ([3]; oral dose 3 mg/kg, 24 h, splenocytes, flow cytometry): 111%; % BTK Remaining ([3]; oral dose 10 mg/kg, 24 h, blood, flow cytometry): 59%; % BTK Remaining ([3]; oral dose 10 mg/kg, 24 h, splenocytes, flow cytometry): 74%; % BTK Remaining [3, 7]: 52%; % BTK Remaining ([3]; oral dose 30 mg/kg, 24 h, splenocytes, flow cytometry): 69%; % BTK Remaining ([3]; oral dose 90 mg/kg, 24 h, blood, flow cytometry): 48%; % BTK Remaining ([3]; oral dose 90 mg/kg, 24 h, splenocytes, flow cytometry): 65%
18 | NC(=O)c1ncc(N2CCC[C@@H](N3CCCC3=O)C2)nc1Nc1ccc(N2CC(C3CCN(c4ccc5c(c4)C(=O)N(C4CCC(=O)NC4=O)C5=O)CC3)C2)nc1 (stereo partly drawn) [Compound 168] | – | – | – | – | – | % BTK Remaining [3, 9]: 84%
19 | NC(=O)c1ncc(N2CCC(F)(F)C(CO)C2)nc1Nc1ccc(C2CCN(C[C@H]3CCN(c4ccc5c(c4)C(=O)N(C4CCC(=O)NC4=O)C5=O)C3)CC2)cc1 (stereo partly drawn) [Compound 175] | – | – | – | – | – | % BTK Remaining [3, 9]: 62%
20 | Cn1c(=O)n([C@@H]2CCC(=O)NC2=O)c2ccc(N3CC[C@@H](CN4CCC(c5ccc(Nc6nc(N7CCCCC7)cnc6C(N)=O)cc5)CC4)C3)cc21 [Compound 197] | – | – | – | – | – | % BTK Remaining [3, 7]: 13%
21 | NC(=O)c1ncc(N2CCCCC2)nc1Nc1ccc(C2CCN(CC3CCN(c4ccc(OC5CCC(=O)NC5=O)cn4)CC3)CC2)cc1 (stereo not drawn) [Compound 164] | – | – | – | – | – | % BTK Remaining [3, 9]: 29%
22 | CN1CCN([C@@H]2CCCN(c3cnc(C(N)=O)c(Nc4ccc(N5CC6CN(Cc7ccc8c(c7)C(=O)N(C7CCC(=O)NC7=O)C8=O)CC6C5)cc4)n3)C2)C1=O (stereo partly drawn) [Compound 76] | – | – | – | – | – | % BTK Remaining [3, 10]: 100%
23 | CN1CCN([C@@H]2CCCN(c3cnc(C(N)=O)c(Nc4ccc(N5CCN(C[C@H]6CCN(c7ccc8c(c7)C(=O)N(C7CCC(=O)NC7=O)C8=O)C6)CC5)nc4)n3)C2)C1=O (stereo partly drawn) [Compound 113] | – | – | – | – | – | % BTK Remaining [3, 10]: 70%; % BTK Remaining ([3]; oral dose 30 mg/kg, 24 h, blood, analysis method not given): 59%; % BTK Remaining [3, 9]: 52%
